# Assays:
# [1] = system: Viola arvensis, Bromus spp., Lolium spp., Agropyron repens and Urtica urens; conditions: reported by Hoechst et al., 1991; cited from earlier work
# Borreria verticillata = assay: Greenhouse trial, post-emergence herbicidal activity on Borreria verticillata; assay type: in vivo
# Experimental: (§1) The expected efficacy of a combination of L-glufosinate ammonium and the other herbicides was calculated using the well-established Colby method. Any difference between the observed and “expected” efficacy could be attributed to synergy between the two compounds.
# (§2) In the Colby method, the expected (or predicted) response of a combination of herbicides is calculated by taking the product of the observed response for each individual component of the combination when applied alone, divided by 100, and subtracting this value from the sum of the observed response for each component when applied alone. An unexpected enhancement in efficacy of the combination is then determined by comparing the observed response of the combination to the expected (or predicted) response as calculated from the observed response of each individual component alone. If the observed response of the combination is greater than the expected (or predicted) response, or stated conversely, if the difference between the observed and expected response is greater than zero, then the combination is said to be synergistic or unexpectedly effective (Colby, S. R., Weeds, 1967(15), p. 20-22). The Colby method requires only a single dose of each herbicide applied alone and the mixture of both doses. The formula used to calculate the expected efficacy (EE) which was compared with the observed efficacy (OE) to determine the efficacy of the present disclosure is explained hereinbelow:
# (§3) Methodology: Greenhouse trials were conducted to evaluate the efficacy of the combination comprising L-glufosinate ammonium and imidazolinone herbicides—imazethapyr, imazamox, imazapic and imazapic+imazapyr—on weeds Borreria verticilata, Eleusine indica, Brachiaria decumbens, Spermacoce latifolia and Glycine max.
# (§4) The soil used was sandy clay loam—sand: 68.0%; silt: 8.0%; clay: 24.0%.
# (§5) All treatments were in 3 replications per treatment with a spray volume of about 150 L/ha.
# The percentage efficacy was calculated after 3, 7, 14, 21, 28 and 35 days of applications (DAA). The target weed was Borreria verticillata, and the concentration of the herbicide and the results are recorded in Table 1.
# The percentage efficacy was calculated after 3 days of applications (DAA). The target weed was Borreria verticillata, and the concentration of the herbicide and the results are recorded in Table 2.
# The percentage efficacy was calculated after 3, 7, 14, 21, 28 and 35 days of applications (DAA). The target weed was Borreria verticillata, and the concentration of the herbicide and the results are recorded Table 7.
# weedy Glycine max = assay: Greenhouse trial, post-emergence herbicidal activity on Glycine max; assay type: in vivo; conditions: Table 6
# Experimental: as §1, §2, §3, §4, §5
# The percentage efficacy was calculated after 14, 21, 28, 35 days of applications (DAA). The target weed was weedy Glycine max, and the concentration of the herbicide and the results are recorded in Table 6.
# weedy Eleusine indica = assay: Greenhouse trial, post-emergence herbicidal activity on Eleusine indica; assay type: in vivo; conditions: Table 4
# Experimental: as §1, §2, §3, §4, §5
# The percentage efficacy was calculated after 7, 14, 21, 28, 35 days of applications (DAA). The target weed was weedy Eleusine indica, and the concentration of the herbicide and the results are recorded in Table 4.
# [2] = system: weedy Brachiaria decumbens; assay: Greenhouse trial, post-emergence herbicidal activity on Brachiaria decumbens; assay type: in vivo; conditions: Table 3
# Experimental: as §1, §2, §3, §4, §5
# The percentage efficacy was calculated after 7, 14, 21, 28, 35 days of applications (DAA). The target weed was weedy Brachiaria decumbens, and the concentration of the herbicide and the results are recorded in Table 3.
# Spermacoce latifolia = assay: Greenhouse trial, post-emergence herbicidal activity on Spermacoce latifolia; assay type: in vivo; conditions: Table 5
# Experimental: as §1, §2, §3, §4, §5
# The percentage efficacy was calculated after 14, 21, 28, 35 days of applications (DAA). The target weed was Spermacoce latifolia, and the concentration of the herbicide and the results are recorded Table 5.
structure (smiles),measurement,setting,value
"CP(=O)(O)CCC(N)C(=O)O (racemic) [glufosinate, DL-homoalanin-4-yl(methyl)phosphinic acid]","control of weed species Viola arvensis, Bromus spp., Lolium spp., Agropyron repens and Urtica urens",[1],"either not combated, or only weakly combated"
"COCc1cnc(C2=NC(C)(C(C)C)C(=O)N2)c(C(=O)O)c1 (stereo not drawn) [Imazamox, imazamox]",Observed efficacy (%) of Imazamox (21 g a.i./ha),"Borreria verticillata; 3 DAA, 21 g a.i./ha, Table 2",10%
"CCc1cnc(C2=NC(C)(C(C)C)C(=O)N2)c(C(=O)O)c1 (stereo not drawn) [Imazethapyr, imazethapyr]","Observed efficacy (%) of Imazethapyr, (75 g a.i./ha)",weedy Glycine max; 14 DAA,10%
same,"Observed efficacy (%) of Imazethapyr, (75 g a.i./ha)",weedy Glycine max; 21 DAA,20%
same,"Observed efficacy (%) of Imazethapyr, (75 g a.i./ha)",weedy Glycine max; 28 DAA,20%
same,"Observed efficacy (%) of Imazethapyr, (75 g a.i./ha)",weedy Glycine max; 35 DAA,15%
same,"Observed efficacy (%) of Imazethapyr, (75 g a.i./ha)",weedy Eleusine indica; 7 DAA,8.3%
same,"Observed efficacy (%) of Imazethapyr, (75 g a.i./ha)",weedy Eleusine indica; 14 DAA,12%
same,"Observed efficacy (%) of Imazethapyr, (75 g a.i./ha)",weedy Eleusine indica; 21 DAA,12.7%
same,"Observed efficacy (%) of Imazethapyr, (75 g a.i./ha)",weedy Eleusine indica; 28 DAA,12.7%
same,"Observed efficacy (%) of Imazethapyr, (75 g a.i./ha)",weedy Eleusine indica; 35 DAA,10%
same,"Observed efficacy (%) of Imazethapyr, (75 g a.i./ha)",[2]; 7 DAA,10%
same,"Observed efficacy (%) of Imazethapyr, (75 g a.i./ha)",[2]; 14 DAA,10%
same,"Observed efficacy (%) of Imazethapyr, (75 g a.i./ha)",[2]; 21 DAA,15%
same,"Observed efficacy (%) of Imazethapyr, (75 g a.i./ha)",[2]; 28 DAA,10%
same,"Observed efficacy (%) of Imazethapyr, (75 g a.i./ha)",[2]; 35 DAA,5%
same,"Observed efficacy (%) of Imazethapyr, (75 g a.i./ha)",Spermacoce latifolia; 14 DAA,30%
same,"Observed efficacy (%) of Imazethapyr, (75 g a.i./ha)",Spermacoce latifolia; 21 DAA,36.7%
same,"Observed efficacy (%) of Imazethapyr, (75 g a.i./ha)",Spermacoce latifolia; 28 DAA,30%
same,"Observed efficacy (%) of Imazethapyr, (75 g a.i./ha)",Spermacoce latifolia; 35 DAA,26.7%
"CP(=O)(O)CC[C@H](N)C(=O)O.N [L-glufosinate ammonium, ammonium (2S)-2-amino-4-(methylphosphinato)butyric acid]","Observed efficacy (%) of L-glufosinate ammonium, (150 g a.i./ha)",weedy Glycine max; 14 DAA,60%
same,"Observed efficacy (%) of L-glufosinate ammonium, (150 g a.i./ha)",weedy Glycine max; 21 DAA,63.3%
same,"Observed efficacy (%) of L-glufosinate ammonium, (150 g a.i./ha)",weedy Glycine max; 28 DAA,63.3%
same,"Observed efficacy (%) of L-glufosinate ammonium, (150 g a.i./ha)",weedy Glycine max; 35 DAA,52.7%
same,"Observed efficacy (%) of L-glufosinate ammonium, (150 g a.i./ha)",weedy Eleusine indica; 7 DAA,43.3%
same,"Observed efficacy (%) of L-glufosinate ammonium, (150 g a.i./ha)",weedy Eleusine indica; 14 DAA,41.3%
same,"Observed efficacy (%) of L-glufosinate ammonium, (150 g a.i./ha)",weedy Eleusine indica; 21 DAA,37.3%
same,"Observed efficacy (%) of L-glufosinate ammonium, (150 g a.i./ha)",weedy Eleusine indica; 28 DAA,28.3%
same,"Observed efficacy (%) of L-glufosinate ammonium, (150 g a.i./ha)",weedy Eleusine indica; 35 DAA,25.3%
same,"Observed efficacy (%) of L-glufosinate ammonium, (150 g a.i./ha)",[2]; 7 DAA,46%
same,"Observed efficacy (%) of L-glufosinate ammonium, (150 g a.i./ha)",[2]; 14 DAA,54.3%
same,"Observed efficacy (%) of L-glufosinate ammonium, (150 g a.i./ha)",[2]; 21 DAA,53.3%
same,"Observed efficacy (%) of L-glufosinate ammonium, (150 g a.i./ha)",[2]; 28 DAA,48.3%
same,"Observed efficacy (%) of L-glufosinate ammonium, (150 g a.i./ha)",[2]; 35 DAA,42%
same,Observed efficacy (%) of L-glufosinate ammonium (Glufosinate-P-ammonium) (150 g a.i./ha),"Borreria verticillata; 3 DAA, Table 1",50%
same,Observed efficacy (%) of L-glufosinate ammonium (Glufosinate-P-ammonium) (150 g a.i./ha),"Borreria verticillata; 3 DAA, Table 2",55%
same,Observed efficacy (%) of L-glufosinate ammonium (Glufosinate-P-ammonium) (150 g a.i./ha),"Borreria verticillata; 3 DAA, Table 7",50%
same,Observed efficacy (%) of L-glufosinate ammonium (Glufosinate-P-ammonium) (150 g a.i./ha),"Borreria verticillata; 7 DAA, Table 1",80%
same,Observed efficacy (%) of L-glufosinate ammonium (Glufosinate-P-ammonium) (150 g a.i./ha),"Borreria verticillata; 7 DAA, Table 7",80%
same,Observed efficacy (%) of L-glufosinate ammonium (Glufosinate-P-ammonium) (150 g a.i./ha),"Borreria verticillata; 14 DAA, Table 1",95%
same,Observed efficacy (%) of L-glufosinate ammonium (Glufosinate-P-ammonium) (150 g a.i./ha),"Borreria verticillata; 14 DAA, Table 7",95%
same,Observed efficacy (%) of L-glufosinate ammonium (Glufosinate-P-ammonium) (150 g a.i./ha),"Borreria verticillata; 21 DAA, Table 1",90%
same,Observed efficacy (%) of L-glufosinate ammonium (Glufosinate-P-ammonium) (150 g a.i./ha),"Borreria verticillata; 21 DAA, Table 7",90%
same,Observed efficacy (%) of L-glufosinate ammonium (Glufosinate-P-ammonium) (150 g a.i./ha),"Borreria verticillata; 28 DAA, Table 1",90%
same,Observed efficacy (%) of L-glufosinate ammonium (Glufosinate-P-ammonium) (150 g a.i./ha),"Borreria verticillata; 28 DAA, Table 7",90%
same,Observed efficacy (%) of L-glufosinate ammonium (Glufosinate-P-ammonium) (150 g a.i./ha),"Borreria verticillata; 35 DAA, Table 1",85%
same,Observed efficacy (%) of L-glufosinate ammonium (Glufosinate-P-ammonium) (150 g a.i./ha),"Borreria verticillata; 35 DAA, Table 7",85%
same,"Observed efficacy (%) of L-glufosinate ammonium, (150 g a.i./ha)",Spermacoce latifolia; 14 DAA,56.7%
same,"Observed efficacy (%) of L-glufosinate ammonium, (150 g a.i./ha)",Spermacoce latifolia; 21 DAA,56.7%
same,"Observed efficacy (%) of L-glufosinate ammonium, (150 g a.i./ha)",Spermacoce latifolia; 28 DAA,58.3%
same,"Observed efficacy (%) of L-glufosinate ammonium, (150 g a.i./ha)",Spermacoce latifolia; 35 DAA,58.3%
"Cc1cnc(C2=NC(=O)C(C)(C(C)C)N2)c(C(=O)O)c1 (stereo not drawn) [Imazapic, imazapic]",Observed efficacy (%) of Imazapic (59 g a.i./ha),"Borreria verticillata; 3 DAA, Table 1",10%
same,Observed efficacy (%) of Imazapic (59 g a.i./ha),"Borreria verticillata; 7 DAA, Table 1",20%
same,Observed efficacy (%) of Imazapic (59 g a.i./ha),"Borreria verticillata; 14 DAA, Table 1",35%
same,Observed efficacy (%) of Imazapic (59 g a.i./ha),"Borreria verticillata; 21 DAA, Table 1",30%
same,Observed efficacy (%) of Imazapic (59 g a.i./ha),"Borreria verticillata; 28 DAA, Table 1",40%
same,Observed efficacy (%) of Imazapic (59 g a.i./ha),"Borreria verticillata; 35 DAA, Table 1",60%
